Assay results published in US20260265238A1, “COMPOUNDS AND PHARMACEUTICAL COMPOSITIONS THAT DEGRADE SWI/SNF-RELATED MATRIX-ASSOCIATED ACTIN-DEPENDENT REGULATOR OF CHROMATIN SUBFAMILY A” (Plexium, Inc., priority 2023, published 2026).

Columns and labels:
[1] = molecular target: T1, SMARCA4-HiBiT HeLa cells (protein which is expressed from the SMARCA4 gene) (Homo sapiens, UniProt P51532); experiment: SMARCA4 degradation assay (HiBiT-fusion HeLa cell line, 24 h, luminescence); assay type: cell-based
T1 construct: protein which is expressed from the SMARCA2 and SMARCA4 genes; host or cells: HeLa (SMARCA4-HiBiT engineered line)
T1 sequence (P51532 whole entry, the tested form may be a part): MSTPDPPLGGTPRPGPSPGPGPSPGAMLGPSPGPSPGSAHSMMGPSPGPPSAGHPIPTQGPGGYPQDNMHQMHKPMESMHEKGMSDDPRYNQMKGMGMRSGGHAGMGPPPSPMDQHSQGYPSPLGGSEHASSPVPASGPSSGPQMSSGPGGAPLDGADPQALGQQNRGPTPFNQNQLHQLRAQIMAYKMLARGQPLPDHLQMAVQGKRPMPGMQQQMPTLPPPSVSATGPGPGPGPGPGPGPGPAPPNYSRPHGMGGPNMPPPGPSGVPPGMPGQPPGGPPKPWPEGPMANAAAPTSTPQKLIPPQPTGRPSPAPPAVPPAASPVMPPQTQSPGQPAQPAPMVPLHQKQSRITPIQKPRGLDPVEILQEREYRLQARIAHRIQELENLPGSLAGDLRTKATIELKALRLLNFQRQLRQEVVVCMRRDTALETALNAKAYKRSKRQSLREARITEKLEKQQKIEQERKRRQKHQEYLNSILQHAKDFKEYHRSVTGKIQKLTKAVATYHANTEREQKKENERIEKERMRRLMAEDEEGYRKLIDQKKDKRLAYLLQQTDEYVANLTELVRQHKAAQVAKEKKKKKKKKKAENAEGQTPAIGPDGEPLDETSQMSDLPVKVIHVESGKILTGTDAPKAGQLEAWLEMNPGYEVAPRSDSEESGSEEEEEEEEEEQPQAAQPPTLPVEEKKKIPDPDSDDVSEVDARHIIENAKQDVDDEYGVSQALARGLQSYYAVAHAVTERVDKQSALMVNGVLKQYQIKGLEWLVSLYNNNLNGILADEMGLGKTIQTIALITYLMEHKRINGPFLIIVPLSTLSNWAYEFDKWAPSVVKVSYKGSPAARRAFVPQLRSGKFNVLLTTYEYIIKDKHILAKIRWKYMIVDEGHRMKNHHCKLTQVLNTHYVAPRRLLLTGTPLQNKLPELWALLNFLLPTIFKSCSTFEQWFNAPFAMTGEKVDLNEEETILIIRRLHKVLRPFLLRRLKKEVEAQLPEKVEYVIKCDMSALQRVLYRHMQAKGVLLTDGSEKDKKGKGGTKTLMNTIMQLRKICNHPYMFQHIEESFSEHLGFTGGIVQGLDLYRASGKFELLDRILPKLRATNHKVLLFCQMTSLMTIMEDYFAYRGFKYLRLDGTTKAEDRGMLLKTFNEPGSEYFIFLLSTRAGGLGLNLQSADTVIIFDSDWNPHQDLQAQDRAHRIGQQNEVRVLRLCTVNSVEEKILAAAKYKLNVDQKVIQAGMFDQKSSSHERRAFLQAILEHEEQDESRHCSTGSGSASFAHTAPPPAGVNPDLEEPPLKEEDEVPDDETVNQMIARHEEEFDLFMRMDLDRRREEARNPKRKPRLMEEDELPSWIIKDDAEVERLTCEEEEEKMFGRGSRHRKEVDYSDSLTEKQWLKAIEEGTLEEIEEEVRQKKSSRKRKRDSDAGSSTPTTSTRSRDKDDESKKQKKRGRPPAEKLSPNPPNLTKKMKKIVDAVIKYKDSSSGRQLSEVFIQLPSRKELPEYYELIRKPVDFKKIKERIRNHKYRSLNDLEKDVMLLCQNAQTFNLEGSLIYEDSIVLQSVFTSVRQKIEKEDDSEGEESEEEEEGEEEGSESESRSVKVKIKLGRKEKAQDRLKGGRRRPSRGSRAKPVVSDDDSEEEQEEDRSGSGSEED
Summary of the method: (§1)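 SMARCA2- or SMARCA4-HiBiT HeLa cells seeded overnight at 37° C, then given compound as a 10-point dilution (typically 10 μM to 300 pM) for 24 h at 37° C. Protein level read by HiBiT lytic detection luminescence; DC50 from dose-response curves; degradation also scored at 1 μM.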

[2] = molecular target: T2, SMARCA2-HiBiT HeLa cells (protein which is expressed from the SMARCA2 gene) (Homo sapiens, UniProt P51531); experiment: SMARCA2 degradation assay (HiBiT-fusion HeLa cell line, 24 h, luminescence); assay type: cell-based
T2 construct: protein which is expressed from the SMARCA2 and SMARCA4 genes; host or cells: HeLa (SMARCA2-HiBiT engineered line)
T2 sequence (P51531 whole entry, the tested form may be a part): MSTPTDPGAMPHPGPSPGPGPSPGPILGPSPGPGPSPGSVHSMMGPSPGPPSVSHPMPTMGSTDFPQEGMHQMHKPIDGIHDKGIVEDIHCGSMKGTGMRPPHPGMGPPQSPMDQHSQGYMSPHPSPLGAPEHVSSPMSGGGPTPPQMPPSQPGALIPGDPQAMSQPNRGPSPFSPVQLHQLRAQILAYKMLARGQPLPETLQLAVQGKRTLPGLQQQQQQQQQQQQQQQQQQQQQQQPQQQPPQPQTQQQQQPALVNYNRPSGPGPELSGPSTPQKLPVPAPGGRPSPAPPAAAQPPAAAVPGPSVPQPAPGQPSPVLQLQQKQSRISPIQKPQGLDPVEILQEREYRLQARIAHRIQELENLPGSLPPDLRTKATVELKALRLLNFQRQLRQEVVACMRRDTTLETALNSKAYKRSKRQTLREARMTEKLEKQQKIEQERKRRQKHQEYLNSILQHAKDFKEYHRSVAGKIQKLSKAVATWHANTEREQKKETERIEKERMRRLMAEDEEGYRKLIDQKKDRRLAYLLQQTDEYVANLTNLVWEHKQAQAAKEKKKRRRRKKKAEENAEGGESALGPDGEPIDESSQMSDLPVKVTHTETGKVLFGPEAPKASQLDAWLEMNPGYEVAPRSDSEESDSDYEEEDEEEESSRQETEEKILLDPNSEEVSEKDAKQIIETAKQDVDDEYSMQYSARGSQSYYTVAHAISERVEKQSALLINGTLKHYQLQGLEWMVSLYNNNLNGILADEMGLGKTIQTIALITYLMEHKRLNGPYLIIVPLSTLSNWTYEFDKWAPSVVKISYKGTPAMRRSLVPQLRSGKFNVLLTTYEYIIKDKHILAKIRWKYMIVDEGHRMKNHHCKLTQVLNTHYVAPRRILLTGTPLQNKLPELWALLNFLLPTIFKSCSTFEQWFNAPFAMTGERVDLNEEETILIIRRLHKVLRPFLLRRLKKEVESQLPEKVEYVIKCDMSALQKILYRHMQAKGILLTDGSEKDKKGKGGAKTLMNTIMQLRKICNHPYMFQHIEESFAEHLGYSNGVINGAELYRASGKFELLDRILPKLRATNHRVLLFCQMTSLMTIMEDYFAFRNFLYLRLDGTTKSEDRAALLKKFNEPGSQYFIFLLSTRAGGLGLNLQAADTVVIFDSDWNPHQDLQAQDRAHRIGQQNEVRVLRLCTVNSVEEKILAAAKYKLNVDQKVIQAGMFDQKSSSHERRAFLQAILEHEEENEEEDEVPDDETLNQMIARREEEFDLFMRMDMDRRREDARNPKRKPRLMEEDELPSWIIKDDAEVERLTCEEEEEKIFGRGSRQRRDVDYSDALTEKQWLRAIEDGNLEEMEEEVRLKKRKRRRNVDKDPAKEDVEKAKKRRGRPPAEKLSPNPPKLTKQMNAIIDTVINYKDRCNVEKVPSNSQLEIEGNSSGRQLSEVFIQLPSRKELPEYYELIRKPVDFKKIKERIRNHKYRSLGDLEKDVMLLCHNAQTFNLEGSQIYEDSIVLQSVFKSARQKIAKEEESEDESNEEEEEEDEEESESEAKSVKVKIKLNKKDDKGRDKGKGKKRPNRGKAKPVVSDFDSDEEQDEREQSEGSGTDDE
Summary of the method: as §1

Row | DC50 [1] [nM] | inhibition at 1 µM [1] [%] | DC50 [2] [nM] | SMARCA2 % Degradation @ 1 μM [2] | SMILES
1 | 500 to 5000 | 30 to 70 | 50 to 500 | ++ (++=30-70%) | C[C@@H]1CCN(c2cc(-c3ccccc3O)nnc2N)CCN1c1ccnc(C#CC2CCC2)c1 [Compound P-388, 0-(5-{(R)-4-[2-(2-cyclobutylethynyl)-4-pyridyl]-5-methyl-1,4-diazepan-1-yl}-6-amino-3-pyridazinyl)phenol]
2 | < 50 | 30 to 70 | 50 to 500 | ++ (++=30-70%) | CN(C)CC#Cc1cc(N2C[C@@H]3CN(c4cc(-c5ccccc5O)nnc4N)C[C@@H]3C2)ccn1 [Compound P-389, 0-{5-[(1R,5S)-7-{2-[3-(dimethylamino)-1-propynyl]-4-pyridyl}-3,7-diazabicyclo[3.3.0]oct-3-yl]-6-amino-3-pyridazinyl} phenol]
3 | 50 to 500 | > 70 | 50 to 500 | +++ (+++=>70%) | C[C@@H]1CCN(c2cc(-c3ccccc3O)nnc2N)CCN1c1ccnc(C#CCN2CCCC2=O)c1 [Compound P-390, 1-[3-(4-{ (R)-4-[3-amino-6-(o-hydroxyphenyl)-4-pyridaziny1]-7-methyl-1,4-diazepan-1-yl}-2-pyridyl)-2-propynyl]-2-pyrrolidinone]
4 | 50 to 500 | – | 50 to 500 | ++ (++=30-70%) | C[C@@H]1CCN(c2cc(-c3ccccc3O)nnc2N)CCN1c1ccnc(C#CC2CC2)c1 [Compound P-391, 0-(5-{(R)-4-[2-(2-cyclopropylethynyl)-4-pyridyl]-5-methyl-1,4-diazepan-1-yl}-6-amino-3-pyridazinyl)phenol]
5 | 50 to 500 | > 70 | 50 to 500 | +++ (+++=>70%) | C[C@@H]1CCN(c2cc(-c3ccccc3O)nnc2N)CCN1c1ccnc(C#CCN2CC3CC2C3)c1 [Compound P-392, 0-{5-[(R)-4-(2-{3-(2-azabicyclo[2.1.1]hex-2-yl)-1-propynyl}-4-pyridyl)-5-methyl-1,4-diazepan-1-yl]-6-amino-3-pyridazinyl}phenol]
6 | < 50 | 30 to 70 | < 50 | +++ (+++=>70%) | C[C@@H]1CCN(c2cc(-c3ccccc3O)nnc2N)CCN1c1ccc(C#N)c(C#CCN2CC3CC2C3)n1 [Compound P-393, 6-{(R)-4-[3-amino-6-(o-hydroxyphenyl)-4-pyridazinyl]-7-methyl-1,4-diazepan-1-yl}-2-{3-(2-azabicyclo[2.1.1]hex-2-yl)-1-propynyl} nicotinonitrile]
7 | 500 to 5000 | – | 500 to 5000 | + (+=<30%) | C[C@@H]1CCN(c2cc(-c3ccccc3O)nnc2N)CCN1c1ccc(C(F)(F)F)c(C#CCN2CCCC2)n1 [Compound P-394]
8 | > 5000 | – | 500 to 5000 | – | C[C@@H]1CCN(c2cc(-c3ccccc3O)nnc2N)CCN1c1ccc(C(F)(F)F)c(C#CCN(C)C)n1 [Compound P-395, 0-{5-[(R)-4-{6-[3-(dimethylamino)-1-propynyl]-5-(trifluoromcthyl)-2-pyridyl}-5-methyl-1,4-diazepan-1-yl]-6-amino-3-pyridazinyl}phenol]
9 | 50 to 500 | 30 to 70 | 50 to 500 | +++ (+++=>70%) | C[C@@H]1CCN(c2cc(-c3ccccc3O)nnc2N)CCN1c1ccnc(C#CC2CC(F)(F)C2)c1 [Compound P-396, 0-{5-[(R)-4-{2-[2-(3,3-difluorocyclobutyl)ethynyl]-4-pyridyl}-5-methyl-1,4-diazepan-1-yl]-6-amino-3-pyridazinyl}phenol]
10 | 500 to 5000 | 30 to 70 | 50 to 500 | ++ (++=30-70%) | C[C@@H]1CCN(c2cc(-c3ccccc3O)nnc2N)CCN1c1ccnc(C#CCO)c1 [Compound P-397, 0-(5-{(R)-4-[2-(3-hydroxy-1-propynyl)-4-pyridyl]-5-methyl-1,4-diazepan-1-yl}-6-amino-3-pyridazinyl)phenol]
11 | 500 to 5000 | 30 to 70 | 50 to 500 | ++ (++=30-70%) | COCC#Cc1cc(N2CCN(c3cc(-c4ccccc4O)nnc3N)CC[C@H]2C)ccn1 [Compound P-398, 0-(5-{(R)-4-[2-(3-methoxy-1-propynyl)-4-pyridyl]-5-methyl-1,4-diazepan-1-yl}-6-amino-3-pyridazinyl)phenol]
12 | < 50 | 30 to 70 | < 50 | ++ (++=30-70%) | CC(C#Cc1cc(N2CCN(c3cc(-c4ccccc4O)nnc3N)CC[C@H]2C)ccn1)N(C)C (stereo partly drawn) [Compound P-399, 0-{5-[(R)-4-{2-[3-(dimcthylamino)-1-butynyl]-4-pyridyl}-5-methyl-1,4-diazepan-1-y1]-6-amino-3-pyridazinyl}phenol]
13 | > 5000 | – | 500 to 5000 | – | COCC#Cc1nc(N2CCN(c3cc(-c4ccccc4O)nnc3N)CC[C@H]2C)ccc1C#N [Compound P-400, 6-{(R)-4-[3-amino-6-(o-hydroxyphenyl)-4-pyridazinyl]-7-methyl-1,4-diazepan-1-yl}-2-(3-methoxy-1-propynyl)nicotinonitrile]
14 | 50 to 500 | > 70 | 50 to 500 | +++ (+++=>70%) | C[C@@H]1CCN(c2cc(-c3ccccc3O)nnc2N)CCN1c1ccnc(C#C[C@@H](C)O)c1 [Compound P-401, 0-{5-[(R)-4-{2-[(R)-3-hydroxy-1-butynyl]-4-pyridyl}-5-methyl-1,4-diazepan-1-yl]-6-amino-3-pyridazinyl}phenol]
15 | > 5000 | – | 500 to 5000 | – | N#Cc1ccc(N2C3CCC2CN(c2cnnc(-c4ccccc4O)c2)C3)nc1C#CCN1CC(F)(F)C1 [Compound P-403, 2-[3-(3,3-difluoro-1-azetidinyl)-1-propynyl]-6-{3-[6-(o-hydroxyphenyl)-4-pyridazinyl]-3,8-diazabicyclo[3.2.1]oct-8-yl} nicotinonitrile]
16 | 50 to 500 | 30 to 70 | 50 to 500 | ++ (++=30-70%) | C[C@@H]1CCN(c2cc(-c3ccccc3O)nnc2N)CCN1c1ccnc(C#CCN2C[C@@H]3C[C@H]2CO3)c1 [Compound P-404, 0-{5-[(R)-4-[2-(3-{(1S,4S)-2-oxa-5-azabicyclo[2.2.1]hept-5-yl}-1-propynyl)-4-pyridyl]-5-methyl-1,4-diazepan-1-yl]-6-amino-3-pyridazinyl}phenol]
17 | > 5000 | – | 500 to 5000 | – | C[C@@H]1CCN(c2cc(-c3ccccc3O)nnc2N)CCN1c1ccnc(C#CCn2cncn2)c1C#N [Compound P-405, 4-{(R)-4-[3-amino-6-(0-hydroxyphenyl)-4-pyridaziny1]-7-methyl-1,4-diazepan-1-yl}-2-[3-(1H-1,2,4-triazol-1-yl)-1-propynyl]nicotinonitrile]
18 | 500 to 5000 | 30 to 70 | 500 to 5000 | ++ (++=30-70%) | C[C@@H]1CCN(c2cc(-c3ccccc3O)nnc2N)CCN1c1ccnc(C#CCN(C)C)c1C#N [Compound P-406, 4-{(R)-4-[3-amino-6-(0-hydroxyphenyl)-4-pyridazinyl]-7-methyl-1,4-diazepan-1-yl}-2-[3-(dimethylamino)-1-propynyl]nicotinonitrile]
19 | < 50 | < 30 | < 50 | ++ (++=30-70%) | CC(C#Cc1nc(N2CCN(c3cc(-c4ccccc4O)nnc3N)CC[C@H]2C)ccc1C#N)N(C)C (stereo partly drawn) [Compound P-407, 6-{(R)-4-[3-amino-6-(o-hydroxyphenyl)-4-pyridazinyl]-7-methyl-1,4-diazepan-1-yl}-2-[3-(dimethylamino)-1-butynyl]nicotinonitrile]
20 | 50 to 500 | 30 to 70 | 50 to 500 | ++ (++=30-70%) | C[C@@H]1CCN(c2cc(-c3ccccc3O)nnc2N)CCN1c1cc(C#CCn2ccnc2)ncc1Cl [Compound P-408, 0-{5-[(R)-4-{5-chloro-2-[3-(1-imidazolyl)-1-propynyl]-4-pyridyl}-5-methyl-1,4-diazepan-1-yl]-6-amino-3-pyridazinyl} phenol]
21 | 50 to 500 | – | 50 to 500 | + (+=<30%) | C[C@@H]1CCN(c2cc(-c3ccccc3O)nnc2N)CCN1c1cc(C#CCN(C)C)ncc1Cl [Compound P-409, 0-{5-[(R)-4-{5-chloro-2-[3-(dimethylamino)-1-propynyl]-4-pyridyl}-5-methyl-1,4-diazepan-1-yl]-6-amino-3-pyridazinyl}phenol]
22 | > 5000 | – | > 5000 | – | C[C@@H]1CCN(c2cnnc(-c3ccccc3O)c2)CCN1c1ccc(C#N)c(C#CCNC(=O)c2cc3ncccn3n2)n1 [Compound P-410, N-[3-(6-{(R)-4-[6-(0-hydroxyphenyl)-4-pyridazinyl]-7-methyl-1,4-diazepan-1-yl}-3-cyano-2-pyridyl)-2-propynyl]-1,4,7a-triaza-2-indenecarboxamide]

Row | SMILES | DC50 [1] [nM] | inhibition at 1 µM [1] [%] | DC50 [2] [nM] | SMARCA2 % Degradation @ 1 μM [2]
23 | N#Cc1ccc(N2C3CCC2CN(c2cnnc(-c4ccccc4O)c2)C3)nc1C#CCN1CC[C@H](F)C1 [Compound P-402, 2-{3-[(S)-3-fluoro-1-pyrrolidinyl]-1-propynyl}-6-{3-[6-(o-hydroxyphenyl)-4-pyridazinyl]-3,8-diazabicyclo[3.2.1]oct-8-yl}nicotinonitrile] | 50 to 500 | < 30 | 50 to 500 | ++ (++=30-70%)
